Converted amounts (≈) assume the structure as drawn. Where a name gives a salt, the structure may show the parent alone. Read-outs that look alike come from different tables or passages of the source.
How the values were obtained:
[1] = target: Human CGRP receptors (consisting of CRLR and RAMP1) (Homo sapiens (Human), UniProt O60894+Q16602); experiment: Radioligand binding assay (3H-telcagepant displacement); conditions: Sf21 membranes, 0.5 nM 3H-telcagepant, Cheng-Prussoff
Description: Human Calcitonin Receptor Like Receptor (CRLR) and human RAMP1 were cloned into Invitrogen's (ThermoFisher Scientific, UK) pFastBac dual expression vector. Transposition of CRLR/RAMP1 DNA was performed using Invitrogen's Bac-to-Bac Baculovirus Expression Systems. P0 baculovirus was generated by transfecting SF9 cells with bacmid DNA using Cellfectin® II transfection reagent (ThermoFisher Scientific, UK, catalog number 10362-100). Following P0 generation P1 virus was then generated ready for large scale infection and membrane preparation. Sf21 cells were grown in expression medium ESF921 (Expression Systems, USA, catalog number 96-001-01) supplemented with 10% heat-inactivated FBS and 1% Pen/Strep and were infected at a cell density of 2.5×10^6 cells/mL and an MOI of 2. Expression was carried out over 48 h in a shaking incubator set at 27° C. The cell culture was centrifuged at 2,500 rcf for 10 min at 4° C. The pellets were resuspended in cold PBS supplemented with Roche's Complete EDTA-free protease inhibitor cocktail tablets (Roche Applied Sciences, catalog number 05056489001), 1 mM PMSF and 1 mM EDTA. The resuspended cell paste was then centrifuged at 3,273 rcf for 12 min at 4° C. The supernatant was discarded and the pellet frozen at −80° C. The cell pellet from a 4 L culture was resuspended in buffer containing 50 mM Hepes pH 7.5, 150 mM NaCl, 8 Roche EDTA-free protease inhibitor cocktail tablets and 1 mM PMSF. The suspension was left stirring at rt for 1 h and then homogenised for 90 s at 9,500 rpm using a VDI 25 (VWR, USA) homogeniser. The cells were then lysed using a Microfluidizer processor M-110L Pneumatic (Microfluidics, USA). After lysis, the mixture was homogenised for 90 s at 9,500 rpm and then centrifuged at 335 rcf for 10 min. The supernatant was then further ultra-centrifuged at 42,000 rpm for 90 min. After ultra-centrifugation, the supernatant was discarded and the pellet was resuspended in 50 mL (25 mL for each 2 L culture) of buffer containing 50 mM Hepes pH 7.5, 150 mM NaCl, 3 Roche EDTA-free protease inhibitor cocktail tablets and 1 mM PMSF. The suspension was then homogenised for 90 s at 9,500 rpm. The resulting membranes were then stored at −80° C.
Human CGRP receptors expressed (consisting of CRLR and RAMP1) in insect Sf21 cell membrane homogenates were re-suspended in the binding buffer (10 mM HEPES, pH 7.4, 5 mM MgCl2, 0.2% BSA) to a final assay concentration of 0.6 μg protein per well. Saturation isotherms were determined by the addition of various concentrations of ^3H-telcagepant (Ho et al, The Lancet, 2008, 372, 2115) (in a total reaction volume of 250 μL) for 60 min at rt. At the end of the incubation, membranes were filtered onto a unifilter, a 96-well white microplate with bonded GF/B filter pre-incubated with 0.5% PEI, with a Tomtec cell harvester and washed 5 times with distilled water. Non-specific binding (NSB) was measured in the presence of 10 nM MK-3207 hydrochloride (CAS No. 957116-20-0). Radioactivity on the filter was counted (1 min) on a microbeta counter after addition of 50 μL of scintillation fluid. For inhibition experiments, membranes were incubated with 0.5 nM ^3H-telcagepant and 10 concentrations of the inhibitory compound (0.001-10 μM). IC50 values were derived from the inhibition curve and the affinity constant (Ki) values were calculated using the Cheng-Prussoff equation (Cheng et al, Biochem. Pharmacol. 1973, 22, 3099-3108).

CGRP receptor = CGRP receptor (Homo sapiens (Human), UniProt O60894+Q16602); experiment: cAMP functional assay (HTRF) in SK-N-MC cells; assay type: cell-based; conditions: read-out: pkb average (converted)
Sequence of CGRP receptor (Q16602 23-461): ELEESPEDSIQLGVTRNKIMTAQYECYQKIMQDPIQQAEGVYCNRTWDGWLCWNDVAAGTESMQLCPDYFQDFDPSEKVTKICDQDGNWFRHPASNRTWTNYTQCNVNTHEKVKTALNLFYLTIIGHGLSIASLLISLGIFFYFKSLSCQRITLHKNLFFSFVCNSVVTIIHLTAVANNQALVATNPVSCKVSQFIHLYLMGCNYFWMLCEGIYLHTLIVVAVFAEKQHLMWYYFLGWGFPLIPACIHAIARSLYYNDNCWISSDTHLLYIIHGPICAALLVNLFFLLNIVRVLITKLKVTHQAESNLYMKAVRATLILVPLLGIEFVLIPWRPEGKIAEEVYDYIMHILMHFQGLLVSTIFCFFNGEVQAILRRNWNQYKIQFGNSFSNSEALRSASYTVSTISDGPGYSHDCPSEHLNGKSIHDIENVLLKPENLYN
Sequence of CGRP receptor (O60894 27-148): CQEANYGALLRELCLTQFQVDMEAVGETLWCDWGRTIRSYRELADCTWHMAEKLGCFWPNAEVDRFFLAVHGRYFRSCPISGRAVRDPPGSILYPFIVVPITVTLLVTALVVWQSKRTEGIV
Description: cAMP production following receptor activation was determined using the Homogeneous Time-Resolved Fluorescence (HTRF) cAMP dynamic-2 assay (Cisbio, France). The human neuroblastoma cell line SK-N-MC endogenously expressing the human CGRP receptor was seeded at a density of 12,500 cells/well in solid walled 96 well half area plates (Costar, Catalog Number 3688, Corning Life Sciences, Germany). After 16 h incubation at 37° C. media was removed and cells were incubated at 37° C. for 30 min in serum free media containing 500 μM IBMX (Tocris, Abingdon, UK, Catalog Number 2845) and increasing concentrations of test antagonist. Following this cells were challenged with an EC80 concentration of human CGRP (0.3 nM) for a further 30 min at 37° C. and then cAMP production was determined as manufacturer's instructions before plates were read on a PheraStar fluorescence plate reader (BMG LabTech, Germany). IC50 values were derived from the inhibition curve. The pIC50 values (where pIC50=−log10 IC50) were converted to a functional pKb value using a modified Cheng-Prussoff equation where Kd=agonist EC50 and L hot=agonist challenge concentration. The pKb values of certain compounds of the invention are detailed in Table 3.

[2] = target: CGRP receptor ectodomain complex (Homo sapiens (Human), UniProt O60894+Q16602); experiment: Receptor kinetic profiling by surface plasmon resonance (Biacore T200); conditions: SPR; for receptor dissociation (off-rate) compared with olcegepant or MK-3207: in words; for CGRP t1/2: dissociation half-life, 25° C.
Sequence of CGRP receptor ectodomain complex (Q16602 23-139): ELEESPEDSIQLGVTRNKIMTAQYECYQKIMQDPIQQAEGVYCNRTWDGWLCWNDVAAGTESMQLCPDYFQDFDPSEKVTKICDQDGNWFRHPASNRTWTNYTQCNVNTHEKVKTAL
Sequence of CGRP receptor ectodomain complex (O60894 27-118): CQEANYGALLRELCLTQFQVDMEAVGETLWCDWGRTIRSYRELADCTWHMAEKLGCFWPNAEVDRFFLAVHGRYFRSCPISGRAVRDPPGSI
Description: Kinetic analyses were run on a Biacore T200 instrument (GE Healthcare Bio-Sciences AB, Uppsala, Sweden) at 25° C. using 0.05 mM EDTA, PBS (10 mM phosphate buffer, 2.7 mM KCl, 137 mM NaCl) pH 7.4, 0.005% v/v Surfactant P20, 5% DMSO as the running buffer. […] The chip was loaded with Ni^2+ and carboxyl groups of the dextran matrix were activated by EDC/NHS. The receptor ectodomain complex (100 nM in running buffer) was then injected and immobilised via the His-tag and amino groups. Two fold dilution series of each compound (five concentrations, in the range 25-40 nM) were injected. Blank-subtracted data were fitted to a 1:1 interaction model to obtain kinetic parameters which are expressed in Table 4 as dissociation half-life (t1/2=(ln 2/off-rate (kd)/60).

[3] = Thermodynamic solubility profiling; assay type: physicochemical; conditions: aqueous buffer, thermodynamic from solid
Description: A 50 mM DMSO stock solution of test compound was prepared, and from this, a working solution of 1 mM was prepared by dilution with DMSO. The UV absorbance of working solution was scanned from 220 nm to 1000 nm to identify the wavelength maxima of test compound. The 1 mM working solution was then serially diluted in DMSO to different concentrations to determine linearity/calibration curve. […] The resulting solution was then kept on a RotoSpin shaker at 50 rpm for 24 h at rt before the solution was filtered using 0.45 micron PVDF injector filters in order to remove the insoluble fraction of the compound. Subsequently, 150 uL of the filtrate is taken for quantification using a UV spectrophotometer, acquiring the optical density of standard solutions and test compound at the same wavelength maxima. From the optical density of test compound the thermodynamic solubility is calculated using the linearity/calibration curve and expressed as micromolar (μM). Solubility profiles of certain compounds of the invention are detailed in Table 7.

Sequence of Human CGRP receptors (consisting of CRLR and RAMP1) (Q16602 23-461): as the sequence (Q16602 23-461) above
Sequence of Human CGRP receptors (consisting of CRLR and RAMP1) (O60894 27-148): as the sequence (O60894 27-148) above

Structure (SMILES) | pKi average [1] | Kb (CGRP receptor) [nM] | receptor dissociation (off-rate) compared with olcegepant or MK-3207 [2] | CGRP t1/2 [2] [min] | solubility thermodynamic at 24 h ([3]; PBS buffer pH 7.4, 24 h at rt, read-out: Thermodynamic solubility pH 7.4) [µM] | solubility thermodynamic at 24 h ([3]; Sodium Phosphate Buffer pH 6.0, 24 h at rt, read-out: Thermodynamic solubility pH 6) [µM]
Cc1cc(C[C@@H](NC(=O)N2CCC(c3cc4ccccc4[nH]c3=O)CC2)C(=O)N[C@@H](CC2CCN(C(=O)OC(C)(C)C)CC2)C(=O)N2CCN(c3ccncc3)CC2)cc2cn[nH]c12 [Example 2, tert-butyl 4-{(2S)-2-{[(2R)-3-(7-methyl-1H-indazol-5-yl)-2-({[4-(2-oxo-1,2-dihydroquinolin-3-yl)piperidin-1-yl]carbonyl}amino)propanoyl]amino}-3-oxo-3-[4-(pyridin-4-yl)piperazin-1-yl]propyl}piperidine-1-carboxylate] | 10.0 | 0.2 | slow receptor dissociation | 78 |  | 
CCCN1CCC(C[C@H](NC(=O)[C@@H](Cc2cc(C)c3[nH]ncc3c2)NC(=O)N2CCC(c3cc4ccccc4[nH]c3=O)CC2)C(=O)N2CCN(c3ccncc3)CC2)CC1 [Example 4, N-[(2R)-3-(7-methyl-1H-indazol-5-yl)-1-oxo-1-({(2S)-1-oxo-3-(1-propylpiperidin-4-yl)-1-[4-(pyridin-4-yl)piperazin-1-yl]propan-2-yl}amino)propan-2-yl]-4-(2-oxo-1,2-dihydroquinolin-3-yl)piperidine-1-carboxamide] | 10.4 | 0.02 | slow receptor dissociation | 39 |  | 
CCCCC(=O)N1CCC(C[C@H](NC(=O)[C@@H](Cc2cc(C)c3[nH]ncc3c2)NC(=O)N2CCC(c3cc4ccccc4[nH]c3=O)CC2)C(=O)N2CCN(c3ccncc3)CC2)CC1 [Example 6, N-[(2R)-3-(7-methyl-1H-indazol-5-yl)-1-oxo-1-({(2S)-1-oxo-3-(1-pentanoylpiperidin-4-yl)-1-[4-(pyridin-4-yl)piperazin-1-yl]propan-2-yl}amino)propan-2-yl]-4-(2-oxo-1,2-dihydroquinolin-3-yl)piperidine-1-carboxamide] | 10.0 | 0.1 | slow receptor dissociation | 20 |  | 

The next lines start with the values.

pKi average [1] | Kb (CGRP receptor) [nM] | receptor dissociation (off-rate) compared with olcegepant or MK-3207 [2] | CGRP t1/2 [2] [min] | solubility thermodynamic at 24 h ([3]; PBS buffer pH 7.4, 24 h at rt, read-out: Thermodynamic solubility pH 7.4) [µM] | solubility thermodynamic at 24 h ([3]; Sodium Phosphate Buffer pH 6.0, 24 h at rt, read-out: Thermodynamic solubility pH 6) [µM] | Structure (SMILES)
10.4 | 0.0251 | slow receptor dissociation | 36 |  |  | CCN1CCC(C[C@H](NC(=O)[C@@H](Cc2cc(C)c3[nH]ncc3c2)NC(=O)N2CCC(c3cc4ccccc4[nH]c3=O)CC2)C(=O)N2CCN(c3ccncc3)CC2)CC1 [Example 7, N-[(2R)-1-({(2S)-3-(1-ethylpiperidin-4-yl)-1-oxo-1-[4-(pyridin-4-yl)piperazin-1-yl]propan-2-yl}amino)-3-(7-methyl-1H-indazol-5-yl)-1-oxopropan-2-yl]-4-(2-oxo-1,2-dihydroquinolin-3-yl)piperidine-1-carboxamide]
 | 0.0251 |  | 101 | 1960 (≈ 1630 µg/mL) | 1650 (≈ 1370 µg/mL) | Cc1cc(C[C@@H](NC(=O)N2CCC(n3c(=O)[nH]c4ncccc43)CC2)C(=O)N[C@@H](CC2CCN(CCN(C)C)CC2)C(=O)N2CCN(c3ccncc3)CC2)cc2cn[nH]c12 [Example 12, N-[(2R)-1-({(2S)-3-{1-[2-(dimethylamino)ethyl]piperidin-4-yl}-1-oxo-1-[4-(pyridin-4-yl)piperazin-1-yl]propan-2-yl}amino)-3-(7-methyl-1H-indazol-5-yl)-1-oxopropan-2-yl]-4-(2-oxo-2,3-dihydro-1H-imidazo[4,5-b]pyridin-1-yl)piperidine-1-carboxamide]
10.0 | 0.126 |  |  |  |  | Cc1cc(C[C@@H](NC(=O)N2CCC(n3c(=O)[nH]c4ncccc43)CC2)C(=O)N[C@@H](CC2CCN(C(=O)CC(=O)O)CC2)C(=O)N2CCN(c3ccncc3)CC2)cc2cn[nH]c12 [Example 13, 3-(4-{(2S)-2-{[(2R)-3-(7-methyl-1H-indazol-5-yl)-2-({[4-(2-oxo-2,3-dihydro-1H-imidazo[4,5-b]pyridin-1-yl)piperidin-1-yl]carbonyl}amino)propanoyl]amino}-3-oxo-3-[4-(pyridin-4-yl)piperazin-1-yl]propyl}piperidin-1-yl)-3-oxopropanoic Acid, ammonium Salt]

Source: US10300056B2, “CGRP receptor antagonists” (Heptares Therapeutics Limited, priority 2015, dated 2019)
